Results taken from US20090239846A1, “Novel Compounds” (Glaxo Group Limited, priority 2005, published 2009).
Where a name gives a salt, the structure may show the parent alone. Read-outs that look alike come from different tables or passages of the source.

How the values were obtained:
[1] = target: T1, Recombinant human p38α (Homo sapiens, UniProt Q16539); test: Time-resolved fluorescence resonance energy transfer (TR-FRET) kinase assay (standard or low volume); type: biochemical
T1 construct: GST; made in house
Description: […] To activate this protein, 3 μM unactivated p38α was incubated in 200 mM Hepes pH 7.4, 625 mM NaCl, 1 mM DTT with 27 nM active MKK6 (Upstate), 1 mM ATP and 10 mM MgCl2 The activity of the MKK6-activated p38α was assessed using a time-resolved fluorescence resonance energy transfer (TR-FRET) assay. Biotinylated-GST-ATF2 (residues 19-96, 400 nM final), ATP ([…]) and MgCl2 (5 mM final) in assay buffer (40 mM HEPES pH 7.4, 1 mM DTT) were added to wells containing 1 ul of various concentrations of compound or DMSO vehicle (3% final) in NUNC 384 well black plate. The reaction was initiated by the addition of MKK6-activated p38 (100 pM final) to give a total volume of 30 ul. The reaction was incubated for 120 minutes at room temperature, then terminated by the addition of 15 μl of 100 mM EDTA pH 7.4. Detection reagent (15 μl) in buffer (100 mM HEPES pH 7.4, 150 mM NaCl, 0.1% w/v BSA, 1 mM DTT) containing antiphosphothreonine-ATF2-71 polyclonal antibody (Cell Signalling Technology, Beverly Mass., USA) labelled with W-1024 europium chelate (Wallac OY, Turku, Finland), and APC-labelled streptavidin (Prozyme, San Leandro, Calif., USA) was added and the reaction was further incubated for 60 minutes at room temperature. The degree of phosphorylation of GST-ATF2 was measured using a Packard Discovery plate reader (Perkin-Elmer Life Sciences, Pangbourne, UK) as a ratio of specific 665 nm energy transfer signal to reference europium 620 nm signal.
[…] To activate this protein, 3 μM unactivated p38α was incubated in 200 mM Hepes pH7.4, 625 mM NaCl, 1 mM DTT with 27 nM active MKK6 (Upstate), 1 mM ATP and 10 mM MgCl2 The activity of the MKK6-activated p38α was assessed using a time-resolved fluorescence resonance energy transfer (TR-FRET) assay. Biotinylated-GST-ATF2 (residues 19-96, 400 nM final), ATP (125 μM final) and MgCl2 (5 mM final) in assay buffer (40 mM HEPES pH 7.4, 1 mM DTT) were added to wells containing 0.1 μl of various concentrations of compound or DMSO vehicle (1.7% final) in Greiner low volume 384 well black plate. The reaction was initiated by the addition of MKK6-activated p38α (100 pM final) to give a total volume of 6 μl. The reaction was incubated for 120 minutes at room temperature, then terminated by the addition of 3 μl of detection reagent in buffer (100 mM HEPES pH 7.4, 150 mM NaCl, 0.1% w/v BSA, 1 mM DTT, 100 mM EDTA) containing antiphosphothreonine-ATF2-71 polyclonal antibody (Cell Signalling Technology, Beverly Mass., USA) labelled with W-1024 europium chelate (Wallac OY, Turku, Finland), and APC-labelled streptavidin (Prozyme, San Leandro, Calif., USA). The reaction was further incubated for 60 minutes at room temperature. The degree of phosphorylation of GST-ATF2 was measured using a BMG Rubystar plate reader (BMG, UK) as a ratio of specific 665 nm energy transfer signal to reference europium 620 nm signal. It is noted that there are two assay formats shown above for the Time-resolved fluorescence resonance energy transfer kinase assay. The only difference between these two assays is the volume used and the plate type. […] The results described herein may have been performed in either assay format and are not differentiated as to which.

[2] = tested on: IL-8 production by human neutrophils; test: TNF-stimulated IL-8 production from human neutrophils; type: cell-based; conditions: Neutrophil
[3] = target: T1, Recombinant human p38α; test: Fluorescence anisotropy kinase binding assay (standard or low volume); conditions: for IC50: bound, read-out: apparent pIC50 (converted); for active in the assay (pIC50, p38α binding): 12 nM p38α, 5 nM fluorescent ligand
How it was run: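 Activated GST-tagged recombinant human p38α (pre-activated with MBP-MKK6 DD) at 12 nM final with 5 nM rhodamine green-labelled pyridinylimidazole tracer in pH 7.5 HEPES/CHAPS/DTT/MgCl2 buffer. Test compound 0.28 nM–16.6 μM or 0.02 nM–25 μM final, 3% or 1.7% DMSO; 30–60 min at room temperature. Fluorescence anisotropy read (ex 485/em 535 nm) for Ki.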

[4] = tested on: IL-6, IL-8, GM-CSF, RANTES and COX-2 synthesis; conditions: a number of different cell types; cited from earlier work
[5] = tested on: TNFalpha; test: LPS-stimulated cytokine production in human whole blood; type: cell-based; conditions: LPS-stimulated TNF-alpha, bound, read-out: IC50
Description: Assay: Test compound concentrations were prepared at 10× concentrations and LPS prepared at 1 ug/ml (final conc. of 50 ng/ml LPS) and added in 50 uL volumes to 1.5 mL eppendorf tubes. Heparinized human whole blood was obtained from healthy volunteers and was dispensed into eppendorf tubes or multiwell plates containing compounds and LPS in 0.2-0.4 mL volumes and the tubes incubated at 37 C. In some studies, compound was incubated with blood for up to 30 min prior to addition of LPS. Following a 4 hour incubation, the tubes or plates were centrifuged to remove cells and plasma was withdrawn and frozen at −80 C. Cytokine measurement: IL-1beta and/or TNFalpha were quantified using a standardized ELISA, or similar technology. Concentrations of IL-1beta or TNFalpha were determined from standard curves of the appropriate cytokine and IC50 values for test compound (concentration that inhibited 50% of LPS-stimulated cytokine production) were calculated by linear regression analysis.

[6] = tested on: TGF-β-induced fibronectin and thrombospondin; conditions: Laping et al., 2002; cited from earlier work
[7] = bound, read-out: pIC50 (converted)
[8] = bound, not more than 50% inhibition at 100 nM, read-out: IC50
[9] = second end given as 'less than', read-out: pIC50, broad range of data upon multiple runs (converted)

T1 sequence (Q16539 whole entry): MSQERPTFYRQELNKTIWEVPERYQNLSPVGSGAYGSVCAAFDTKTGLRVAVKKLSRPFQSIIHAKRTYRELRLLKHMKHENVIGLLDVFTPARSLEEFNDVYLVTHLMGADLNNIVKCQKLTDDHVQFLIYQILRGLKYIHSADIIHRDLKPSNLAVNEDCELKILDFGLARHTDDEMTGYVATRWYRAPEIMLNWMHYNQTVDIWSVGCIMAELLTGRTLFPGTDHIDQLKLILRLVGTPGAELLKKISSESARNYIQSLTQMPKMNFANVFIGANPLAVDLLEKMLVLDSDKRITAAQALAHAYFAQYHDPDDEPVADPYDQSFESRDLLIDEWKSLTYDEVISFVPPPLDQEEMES

Row | Structure (SMILES) | IC50 [2, 8] [nM] | IC50 [3] [nM] | IC50 [1, 9] [nM] | other results
1 | Cc1ccc(C(=O)Nc2ccc(C)c(-c3nc(NC4CCNCC4)nc4c3CNC(=O)N4c3c(F)cccc3F)c2)cc1F [Example 27(b), N-{3-[8-(2,6-difluorophenyl)-7-oxo-2-(4-piperidinylamino)-5,6,7,8-tetrahydropyrimido[4,5-d]pyrimidin-4-yl]-4-methylphenyl}-3-fluoro-4-methylbenzamide] |  |  |  | IC50 [1, 7]: > 15800 nM; active in the assay (pIC50, p38α binding) [3]: active; melting point: 218 to 223.5 °C
2 | C[S+]([O-])c1ccc(-c2nc(-c3ccncc3)c(-c3ccc(F)cc3)[nH]2)cc1 (stereo not drawn) [SB-203580] |  |  |  | decreasing the synthesis of pro-inflammatory proteins including IL-6, IL-8, GM-CSF, RANTES and COX-2 [4]: effective
3 | CC(C)NC(=O)c1ccc(-c2nc(NCCN(C)C)nc3c2CNC(=O)N3c2c(F)cccc2F)cc1 [Example 97, 4-(8-(2,6-difluorophenyl)-2-{[2-(dimethylamino)ethyl]amino}-7-oxo-5,6,7,8-tetrahydropyrimido[4,5-d]pyrimidin-4-yl)-N-(1-methylethyl)benzamide trifluoroacetate] |  | > 15800 | ≥ 158 | 
4 | COc1nccc(-c2c(-c3ccc(F)cc3)ncn2C2CCNCC2)n1 [SB-242235] |  |  |  | effect on TGF-β-induced increases in fibronectin and thrombospondin [6]: inhibited
5 | Cc1cc(C(=O)NC(C)C)ccc1-c1nc(NCCN(C)C)nc2c1CNC(=O)N2c1c(F)cccc1F [104(c), 4-(8-(2,6-difluorophenyl)-2-{[2-(dimethylamino)ethyl]amino}-7-oxo-5,6,7,8-tetrahydropyrimido[4,5-d]pyrimidin-4-yl)-3-methyl-N-(1-methylethyl)benzamide trifluoroacetate] | > 100 | > 15800 | ≥ 158 | 
6 | Cc1ccc(C(=O)NCc2ccccc2)cc1-c1nc(NCCN(C)C)nc2c1CNC(=O)N2c1c(F)cccc1F [Example 18, 3-(8-(2,6-Difluorophenyl)-2-{[2-(dimethylamino)ethyl]amino}-7-oxo-5,6,7,8-tetrahydropyrimido[4,5-d]pyrimidin-4-yl)-4-methyl-N-(phenylmethyl)benzamide] |  |  | ≥ 7.94 | melting point: 148 to 150 °C
7 | CNC(=O)c1ccc(-c2nc(NCCN(C)C)nc3c2CNC(=O)N3c2c(F)cccc2F)cc1 [Example 102, 4-(8-(2,6-difluorophenyl)-2-{[2-(dimethylamino)ethyl]amino}-7-oxo-5,6,7,8-tetrahydropyrimido[4,5-d]pyrimidin-4-yl)-N-methylbenzamide trifluoroacetate] |  | > 15800 | ≥ 158 | 
8 | Cc1ccc(C(=O)NC2CCC2)cc1-c1nc(N2CCC(N)CC2)nc2c1CNC(=O)N2c1c(F)cccc1F [1(g), 3-[2-(4-Amino-1-piperidinyl)-8-(2,6-difluorophenyl)-7-oxo-5,6,7,8-tetrahydropyrimido[4,5-d]pyrimidin-4-yl]-N-cyclobutyl-4-methylbenzamide] |  |  | ≥ 7.94 | IC50 ([2]; ends given as 'less than' / 'greater than', read-out: IC50, broad range of data upon multiple runs): 40 to 100 nM; active in the assay (pIC50, p38α binding) [3]: active
9 | Fc1ccc(-c2nc3n(c2-c2ccncc2)CCS3)cc1 [SK&F 86002] |  |  |  | decreasing the synthesis of pro-inflammatory proteins including IL-6, IL-8, GM-CSF, RANTES and COX-2 [4]: effective

Continued, in another order:

Row | IC50 [2, 8] [nM] | IC50 [3] [nM] | IC50 [1, 9] [nM] | Structure (SMILES) | other results
10 | > 100 | > 15800 |  | Cc1cc(C(N)=O)ccc1-c1nc(NCCN(C)C)nc2c1CNC(=O)N2c1c(F)cccc1F [Example 110, 4-(8-(2,6-difluorophenyl)-2-{[2-(dimethylamino)ethyl]amino}-7-oxo-5,6,7,8-tetrahydropyrimido[4,5-d]pyrimidin-4-yl)-3-methylbenzamide trifluoroacetate] | IC50 [1, 7]: > 1580 nM
11 | > 100 | > 15800 |  | Cc1cc(C(=O)Nc2ccc(F)cc2)ccc1-c1nc(NCCN(C)C)nc2c1CNC(=O)N2c1c(F)cccc1F [Example 107, 4-(8-(2,6-difluorophenyl)-2-{[2-(dimethylamino)ethyl]amino}-7-oxo-5,6,7,8-tetrahydropyrimido[4,5-d]pyrimidin-4-yl)-N-(4-fluorophenyl)-3-methylbenzamide trifluoroacetate] | IC50 [1, 7]: > 1580 nM
12 | > 100 | > 15800 | ≥ 158 | Cc1cc(C(=O)Nc2ccccc2)ccc1-c1nc(NCCN(C)C)nc2c1CNC(=O)N2c1c(F)cccc1F [Example 106, 4-(8-(2,6-difluorophenyl)-2-{[2-(dimethylamino)ethyl]amino}-7-oxo-5,6,7,8-tetrahydropyrimido[4,5-l]pyrimidin-4-yl)-3-methyl-N-phenylbenzamide trifluoroacetate] | 
13 |  |  | ≥ 158 | Cc1ccc(C(=O)O)cc1-c1nc(NCCN(C)C)nc2c1CNC(=O)N2c1c(F)cccc1F [Example 117, 3-(8-(2,6-difluorophenyl)-2-{[2-(dimethylamino)ethyl]amino}-7-oxo-5,6,7,8-tetrahydropyrimido[4,5-d]pyrimidin-4-yl)-4-methylbenzoic acid] | IC50 [5]: > 1000 nM; active in the assay (pIC50, p38α binding) [3]: active
14 | > 100 | > 15800 |  | CCCNC(=O)c1ccc(-c2nc(NCCN(C)C)nc3c2CNC(=O)N3c2c(F)cccc2F)c(C)c1 [Example 105, 4-(8-(2,6-difluorophenyl)-2-{[2-(dimethylamino)ethyl]amino}-7-oxo-5,6,7,8-tetrahydropyrimido[4,5-d]pyrimidin-4-yl)-3-methyl-N-propylbenzamide trifluoroacetate] | IC50 [1, 7]: > 1580 nM
15 | > 100 | > 15800 | ≥ 158 | Cc1cc(C(=O)N(C)C)ccc1-c1nc(NCCN(C)C)nc2c1CNC(=O)N2c1c(F)cccc1F [Example 108, 4-(8-(2,6-difluorophenyl)-2-{[2-(dimethylamino)ethyl]amino}-7-oxo-5,6,7,8-tetrahydropyrimido[4,5-d]pyrimidin-4-yl)-N,N,3-trimethylbenzamide trifluoroacetate] | 
